Tests used:
EpiDerm tissues [1] = experiment: EpiDerm bioassay: cytokine, chemokine and growth factor levels by multiplexed immunoassay after croton oil insult; type: cell-based, human; conditions: 24 hours; for G-CSF, percentage of the control / GM-CSF, percentage of the control / IL-1ra, percentage of the control / IL-10, percentage of the control / IL-13, percentage of the control / Leptin, percentage of the control / PGE2, percentage of the control / IL-4, percentage of the control: EpiDerm + 0.1% croton oil, percent difference vs croton oil alone; for IL-4, percentage of the control: 25% azelaic acid Na salt, 1% salicylic acid Na salt, 1% green tea extract, 1 μg/mL doxycycline hyclate (doxorubicin), 1% 4-ethoxybenzaldehyde, 0.025% all-trans retinoic acid
Procedure: Multiplexed immunoassays: […] Izbicka, et al., Cancer Genomics Proteomics (2012) 9(1):27-35]. Multiplexed immunoassays were performed using Luminex 100 IS System (Luminex Corporation, Austin, TX). Analyte concentrations were calculated from the standard curves using Bio-Plex Manager 4.1.1 (Bio-Rad Laboratories, Hercules, CA). EpiDerm Bioassays: The EpiDermTM 3-Dimensional Skin Model was purchased from MatTek Corporation (Ashland, MA). […] Conditioned media were collected, the remaining cells were homogenized on ice in the presence of protease and phosphatase inhibitors, and the lysates were clarified by centrifugation. The media and cell lysates were snap frozen at -70° C. Proteins were resolved by gel electrophoresis and visualized in immunoblots with human-specific antibodies to inducible nitric oxide synthase (iNOS), S-nitrosocysteine, and superoxide dismutase 2 (all from Abcam, Cambridge, MA). […] Croton oil (a chemical irritant) was used as a control. The results are shown as percent difference in marker levels in tissues treated with the test articles and those treated with croton oil alone. (Table 1). […] This pattern of tandem upregulation of examined markers in concert with downregulation of PGE2 was unique for DEA and was not observed with any other test article.

EpiDerm tissues [2] = experiment: EpiDerm croton oil irritant toxicity: proliferation and viability assays, microscopic inspection; type: cell-based, human; conditions: 25% DEA, 0.1% croton oil
Procedure: Cell proliferation and cytotoxicity assays: CellTiter 96 Non-Radioactive Cell Proliferation Assay (MTT), CellTiter 96 AQueous One Solution Cell Proliferation Assay (MTS) and CellTiter-Glo Luminescent Cell Viability (ATP) kits were purchased from Promega (Madison, WI). Protein concentration was measured using Micro BCA protein assay kit (Pierce Biotechnology, Rockford, IL). EpiDerm Bioassays: The EpiDerm™ 3-Dimensional Skin Model was purchased from MatTek Corporation (Ashland, MA). […] Conditioned media were collected, the remaining cells were homogenized on ice in the presence of protease and phosphatase inhibitors, and the lysates were clarified by centrifugation. The media and cell lysates were snap frozen at −70° C. Proteins were resolved by gel electrophoresis and visualized in immunoblots with human-specific antibodies to inducible nitric oxide synthase (iNOS), S-nitrosocysteine, and superoxide dismutase 2 (all from Abcam, Cambridge, MA). […] Croton oil (a chemical irritant) was used as a control. The results are shown as percent difference in marker levels in tissues treated with the test articles and those treated with croton oil alone. (Table 1). […] This pattern of tandem upregulation of examined markers in concert with downregulation of PGE2 was unique for DEA and was not observed with any other test article.

PBMCs = experiment: Membrane fluidity measurement (pyrenedecanoic acid excimer fluorescence); type: cell-based, human; conditions: 0.5% DEA
Procedure: Isolation of human peripheral blood mononuclear cells: Fresh human peripheral blood mononuclear cells (PBMC) specimens were obtained from healthy volunteers. The blood was collected into BD Vacutainer CPT Cell Preparation Tubes (Beckton Dickinson, Franklin Lakes, NJ) and centrifuged at 1,500×g at room temperature and PBMCs were isolated according to supplier's protocol. Cell counts and viability assessment using trypan blue exclusion were measured using hemocytometer. Membrane fluidity measurements: Membrane fluidity was measured using Membrane Fluidity Kit (PN […], Marker Gene Technologies, Eugene, OR). […] The fluorescence of the excimer (excitation at 355 nm, emission at 460 nm) was corrected for the monomer (excitation at 355 nm, emission at 400 nm). The inventors of the present disclosure have shown that altered membrane protein function with a U-shaped dose response. […] Physiological consequences of DEA membrane fluidizing activity were further investigated in human plasmacytoid dendritic cells, which express multiple PRRs including TLRs, NOD and dectin-1 receptors. Human plasmacytoid dendritic cells were stimulated with the receptor agonists alone or in combination with 0.5% DEA.

[3] = tested on: human plasmacytoid dendritic cells; experiment: ATP release and signaling with PRR agonists in plasmacytoid dendritic cells; type: cell-based; conditions: 0.5% DEA, 24 hours
Procedure: Cell proliferation and cytotoxicity assays: CellTiter 96 Non-Radioactive Cell Proliferation Assay (MTT), CellTiter 96 AQueous One Solution Cell Proliferation Assay (MTS) and CellTiter-Glo Luminescent Cell Viability (ATP) kits were purchased from Promega (Madison, WI). Protein concentration was measured using Micro BCA protein assay kit (Pierce Biotechnology, Rockford, IL).
Pathogen-associated molecular pattern receptor agonist studies: PRR agonist kits; human Toll-like receptor (TLR1-9; n=9 agonists), nucleotide oligomerization domain (NOD) NOD1/NOD2 (n=10 agonists, denoted n1, n2, . . . , n10) and dectin-1 (a single agonist) were purchased from InvivoGen, San Diego, CA Plasmacytoid human dendritic cells (MatTek Corporation, Ashland, MA) were diluted to 1.6×10^5 cells/mL and incubated with the agonists at the concentrations in the middle ranges recommended by the supplier in the absence of DEA or with 0.5% DEA for 24 hours. The levels of measured analytes were normalized to the numbers of viable cells.
The inventors of the present disclosure have shown that altered membrane protein function with a U-shaped dose response. At the concentration of 0.5% DEA increased membrane fluidity by 18% above the cholesterol control level. Physiological consequences of DEA membrane fluidizing activity were further investigated in human plasmacytoid dendritic cells, which express multiple PRRs including TLRs, NOD and dectin-1 receptors. […]
Human plasmacytoid dendritic cells (1.6×10^5/ml) were exposed to 20 different PRR agonists alone at the concentrations within physiological ranges of each agonist or in the presence of 0.5% DEA for 24 hours. The results are expressed as the ratios of secreted ATP from the cells treated with the PRR receptor agonists and DEA (treatment groups) to the levels of ATP secreted by the cells treated with the agonists alone (control groups). […] Extracellular levels were measured, and the results were expressed as the ratios of released ATP from the cells+receptor agonist+DEA to the ATP from the cells+receptor agonist alone.

Balb/c mice = experiment: Hot plate test, hind limb response latency; type: in vivo; conditions: 100% (neat) DEA topical to hind limb 5 minutes before test, 42° C., male mice; vs untreated control, p=0.03
Procedure: In vivo studies: Animal studies and all procedures were performed in compliance with the Animal Welfare Act Regulations (9 CFR 3) and the NIH guidelines for the care and use of laboratory animals at New Frontier Labs LLC, San Antonio, TX Both male and female Balb/c mice 8-10 weeks old weighing approximately 25 g were purchased from Taconic Farms (Hudson, NY). Animals were acclimatized for at least 72 hours after delivery. Prior to experiments the animals were randomized into treatment and control groups. For the assessment of nociceptive effect of DEA, only male mice were used (n=8 per group). The hot plate test was performed at a constant temperature of 42° C. as described in S. Hunskaar, et al., Eur. J. Pharmacol. 1985; 111(2):221-6, which is incorporated herein by reference. DEA was administered neat (100%) or diluted in ethanol (vehicle) to the hind limb. The treatments were administered 5 minutes prior to the heat test. The time between the heat exposure to the first incidence of animal licking the hind paw was measured with a stopwatch.
Statistical analysis: Statistical analysis was done using Student t statistic; p values <0.05 were considered significant. All samples/data were included in the analysis. Continuously distributed outcomes were summarized with the mean and standard deviation. […]

human PBMCs = type: cell-based; conditions: 0.5% DEA, confocal microscopy (FIG. 3)

Structure (SMILES) | G-CSF, percentage of the control (EpiDerm tissues [1]) [%] | GM-CSF, percentage of the control (EpiDerm tissues [1]) [%] | IL-1ra, percentage of the control (EpiDerm tissues [1]) [%] | IL-10, percentage of the control (EpiDerm tissues [1]) [%] | IL-13, percentage of the control (EpiDerm tissues [1]) [%] | Leptin, percentage of the control (EpiDerm tissues [1]) [%] | PGE2, percentage of the control (EpiDerm tissues [1]) [%] | IL-4, percentage of the control (EpiDerm tissues [1]; 25% DEA) [%] | effect on pro-inflammatory markers among 57 examined cytokines, chemokines and growth factors (EpiDerm tissues [1]; 25% DEA, 0.1% croton oil) | tissue integrity as evaluated by microscopic inspection (EpiDerm tissues [2]) | croton oil irritant toxicity in proliferation and viability assays (EpiDerm tissues [2]; 24 hours) | increase of membrane fluidity above the cholesterol control level (PBMCs) [%] | effect on ATP signaling with NOD receptor ligands n9 and n10 [3] | cellular signaling from all examined PRR ([3]; TLR, NOD, dectin-1 agonists) | ratio of released ATP, cells+receptor agonist+DEA to cells+receptor agonist alone ([3]; all PRR agonists except NOD ligands n9 and n10 (FIG. 1)) | decrease of heat sensitivity (hot plate response latency) (Balb/c mice) [%] | foci of enhanced cholera toxin B subunit fluorescence on plasma membranes (human PBMCs)
COc1cccc2c1C(=O)c1c(O)c3c(c(O)c1C2=O)C[C@@](O)(C(=O)CO)C[C@@H]3O[C@H]1C[C@H](N)[C@H](O)[C@H](C)O1 [Doxorubicin, doxorubicin] | 0 | −3 | 15 | 214 | −38 | 116 | −2 | 80 | – | – | – | – | – | – | – | – | –
O=C(O)c1ccccc1O [Salicylic acid, salicylic acid] | 640 | −7 | 15 | 257 | −46 | 202 | 5 | 40 | – | – | – | – | – | – | – | – | –
CCOC(=O)CCCCCCCC(=O)OCC [DEA, diethyl azelate] | 561 | 280 | 33 | 200 | 112 | 51 | – | 600 | downregulated most of the pro-inflammatory markers | protected tissue integrity | nullified croton oil irritant toxicity | 18 | no apparent effect | downregulated cellular signaling from all examined PRR | < 1 | 33 | no foci of enhanced fluorescence were detectable
CCOc1ccc(C=O)cc1 [4-ethoxybenzaldehyde] | 340 | −26 | 34 | 471 | 34 | 39 | 4 | 80 | – | – | – | – | – | – | – | – | –
CC1=C(/C=C/C(C)=C/C=C/C(C)=C/C(=O)O)C(C)(C)CCC1 [Retinoic acid, all-trans retinoic acid] | 360 | −39 | 20 | 369 | −19 | 36 | 4 | 100 | – | – | – | – | – | – | – | – | –
O=C(O)CCCCCCCC(=O)O [Azelaic acid, azelaic acid] | −100 | −16 | 18 | 152 | −4 | 41 | −1 | 40 | – | – | – | – | – | – | – | – | –
